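Cultured in 96-well plates, cells were exposed to test compound for 48 hours across five concentrations. The concentration for 50% growth inhibition is given as GI50.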 Activity calls are given as the source filed them. Cut-off read from the data, not from the text of the source: active = GI50 up to about 1.1 µM and inactive = higher.
Experiments:
Assay in all cases: inhibition of tumour cell growth, NCI panel, 48 h
MDA-MB-435 = tested on: MDA-MB-435
NCI/ADR-RES = tested on: NCI/ADR-RES
SNB-75 = tested on: SNB-75
COLO 205 = tested on: COLO 205
SN12C = tested on: SN12C
NCI-H460 = tested on: NCI-H460
SK-MEL-5 = tested on: SK-MEL-5
NCI-H226 = tested on: NCI-H226
CCRF-CEM = tested on: CCRF-CEM
SF-268 = tested on: SF-268
DU-145 = tested on: DU-145
T47D = tested on: T47D
RXF 393 = tested on: RXF 393
HT-29 = tested on: HT-29
M14 = tested on: M14
ACHN = tested on: ACHN
RPMI-8226 = tested on: RPMI-8226
HL-60 = tested on: HL-60
LOX IMVI = tested on: LOX IMVI

Row | Structure (SMILES) | GI50 (MDA-MB-435) | GI50 (NCI/ADR-RES) | GI50 (SNB-75) | GI50 (COLO 205) | GI50 (SN12C) | GI50 (NCI-H460) | GI50 (SK-MEL-5) | GI50 (NCI-H226) | GI50 (CCRF-CEM) | GI50 (SF-268) | GI50 (DU-145) | GI50 (T47D) | GI50 (RXF 393) | GI50 (HT-29) | GI50 (M14) | GI50 (ACHN) | GI50 (RPMI-8226) | GI50 (HL-60) | GI50 (LOX IMVI)
1 | Cc1cc2nn(C3CCCCO3)nc2cc1C (stereo unspecified) | > 100 µM (inactive) | > 100 µM (inactive) | > 100 µM (inactive) | > 100 µM (inactive) | > 100 µM (inactive) | > 100 µM (inactive) | > 100 µM (inactive) | > 100 µM (inactive) | > 100 µM (inactive) | > 100 µM (inactive) | > 100 µM (inactive) | > 100 µM (inactive) | > 100 µM (inactive) | > 100 µM (inactive) | > 100 µM (inactive) | > 100 µM (inactive) | – | – | –
2 | Clc1c2ncccc2cc2nn[nH]c12 | > 100 µM (inactive) | > 100 µM (inactive) | 28.5 µM (inactive) | > 100 µM (inactive) | > 100 µM (inactive) | 49.2 µM (inactive) | > 100 µM (inactive) | 21.3 µM (inactive) | 17.3 µM (inactive) | > 100 µM (inactive) | > 100 µM (inactive) | > 100 µM (inactive) | > 100 µM (inactive) | > 100 µM (inactive) | > 100 µM (inactive) | > 100 µM (inactive) | > 100 µM (inactive) | 14.5 µM (inactive) | –
3 | NCCCNCCCCN1CCOC1=O | > 100 µM (inactive) | > 100 µM (inactive) | > 100 µM (inactive) | > 100 µM (inactive) | > 100 µM (inactive) | > 100 µM (inactive) | > 100 µM (inactive) | > 100 µM (inactive) | > 100 µM (inactive) | > 100 µM (inactive) | > 100 µM (inactive) | > 100 µM (inactive) | – | > 100 µM (inactive) | > 100 µM (inactive) | > 100 µM (inactive) | > 100 µM (inactive) | > 100 µM (inactive) | > 100 µM (inactive)
4 | O=C(O)C1SCCS1 | > 100 µM (inactive) | > 100 µM (inactive) | > 100 µM (inactive) | > 100 µM (inactive) | > 100 µM (inactive) | > 100 µM (inactive) | > 100 µM (inactive) | > 100 µM (inactive) | > 100 µM (inactive) | > 100 µM (inactive) | > 100 µM (inactive) | > 100 µM (inactive) | – | > 100 µM (inactive) | > 100 µM (inactive) | > 100 µM (inactive) | > 100 µM (inactive) | > 100 µM (inactive) | > 100 µM (inactive)
5 | Cc1cc2c(c3oc(C4(C)OC4C4OC4C)cc(=O)c13)C(=O)c1c(O)c(C3CC(C)(N(C)C)C(O)C(C)O3)cc(C3CC(N(C)C)C(O)C(C)O3)c1C2=O (stereo unspecified) | 9.23e-05 µM (active) | 0.000118 µM (active) | – | 9.53e-05 µM (active) | 0.000136 µM (active) | 0.0025 µM (active) | 0.00112 µM (active) | – | 0.0025 µM (active) | 2.5e-05 µM (active) | 6.85e-05 µM (active) | 0.00018 µM (active) | 0.000104 µM (active) | 0.000175 µM (active) | 8.26e-05 µM (active) | 4.4e-05 µM (active) | 0.000271 µM (active) | 0.0025 µM (active) | –
6 | COc1ccc2[nH]c3c([N+](=O)[O-])ccc(NCCN(C)C)c3/c(=N/CCN(C)C)c2c1 | 1.63 µM (inactive) | – | 1.8 µM (inactive) | 2.01 µM (inactive) | 1.37 µM (inactive) | – | 1.86 µM (inactive) | – | 0.237 µM (active) | 0.962 µM (active) | 2.88 µM (inactive) | > 10 µM (inactive) | 1.03 µM (active) | 1.77 µM (inactive) | > 10 µM (inactive) | – | 0.421 µM (active) | 1.31 µM (inactive) | 1.62 µM (inactive)
7 | CCC12CC(c3ccccc3)C(C(=O)N1)C(=O)N2 (stereo unspecified) | > 100 µM (inactive) | > 100 µM (inactive) | 65.3 µM (inactive) | > 100 µM (inactive) | > 100 µM (inactive) | > 100 µM (inactive) | > 100 µM (inactive) | > 100 µM (inactive) | > 100 µM (inactive) | > 100 µM (inactive) | > 100 µM (inactive) | > 100 µM (inactive) | > 100 µM (inactive) | > 100 µM (inactive) | > 100 µM (inactive) | > 100 µM (inactive) | > 100 µM (inactive) | > 100 µM (inactive) | –
8 | COc1ccc2c(=O)c(-c3cc4c(cc3OC)OCO4)coc2c1 | – | > 100 µM (inactive) | 93.3 µM (inactive) | > 100 µM (inactive) | > 100 µM (inactive) | > 100 µM (inactive) | > 100 µM (inactive) | > 100 µM (inactive) | > 100 µM (inactive) | 72.8 µM (inactive) | > 100 µM (inactive) | > 100 µM (inactive) | – | > 100 µM (inactive) | > 100 µM (inactive) | 43.7 µM (inactive) | > 100 µM (inactive) | > 100 µM (inactive) | > 100 µM (inactive)
9 | COc1cc2cnc(-c3ccccc3)cc2cc1OC | 26.9 µM (inactive) | 26 µM (inactive) | 41.1 µM (inactive) | 20.9 µM (inactive) | 3.5 µM (inactive) | 32.2 µM (inactive) | 11.8 µM (inactive) | 17.7 µM (inactive) | – | 35.7 µM (inactive) | 37.3 µM (inactive) | 26.7 µM (inactive) | 37.2 µM (inactive) | 24.9 µM (inactive) | 30.7 µM (inactive) | 23.3 µM (inactive) | 15.9 µM (inactive) | 20.3 µM (inactive) | –
10 | O=C1NI(C#Cc2ccccc2)c2ccccc21 | > 100 µM (inactive) | > 100 µM (inactive) | – | 29.7 µM (inactive) | > 100 µM (inactive) | > 100 µM (inactive) | > 100 µM (inactive) | > 100 µM (inactive) | 40.6 µM (inactive) | > 100 µM (inactive) | > 100 µM (inactive) | 53 µM (inactive) | – | > 100 µM (inactive) | > 100 µM (inactive) | – | 43.7 µM (inactive) | > 100 µM (inactive) | > 100 µM (inactive)
11 | COc1cc(/C=C2/C[C@H]3[C@@H]4CCC5=CC(=O)CC[C@]5(C)[C@H]4CC[C@]3(C)NC2=O)cc(OC)c1OC | 19.5 µM (inactive) | 25.1 µM (inactive) | 15.6 µM (inactive) | 18.5 µM (inactive) | 22.1 µM (inactive) | 28.4 µM (inactive) | 11.9 µM (inactive) | 28.8 µM (inactive) | 20.8 µM (inactive) | 26.3 µM (inactive) | 21 µM (inactive) | 13 µM (inactive) | 12.5 µM (inactive) | 19.3 µM (inactive) | 27.4 µM (inactive) | 26.4 µM (inactive) | 9.64 µM (inactive) | 13.2 µM (inactive) | –
12 | Cc1ccc(Nc2cc(=O)[nH]c(=O)[nH]2)cc1CS | > 100 µM (inactive) | > 100 µM (inactive) | > 100 µM (inactive) | > 100 µM (inactive) | > 100 µM (inactive) | > 100 µM (inactive) | > 100 µM (inactive) | > 100 µM (inactive) | > 100 µM (inactive) | 61.4 µM (inactive) | – | > 100 µM (inactive) | 89.9 µM (inactive) | > 100 µM (inactive) | > 100 µM (inactive) | 77.4 µM (inactive) | > 100 µM (inactive) | – | > 100 µM (inactive)
13 | c1ccc(/N=C(/Nc2ccccc2)N2CCCCC2)cc1 | 41.6 µM (inactive) | > 100 µM (inactive) | 16.7 µM (inactive) | 59 µM (inactive) | > 100 µM (inactive) | 73.3 µM (inactive) | > 10 µM (inactive) | > 100 µM (inactive) | > 100 µM (inactive) | > 100 µM (inactive) | > 10 µM (inactive) | > 100 µM (inactive) | – | 39.6 µM (inactive) | 22.3 µM (inactive) | > 100 µM (inactive) | 97.9 µM (inactive) | 24.7 µM (inactive) | 40.3 µM (inactive)
14 | Cc1ccc(/C=C/C(=O)c2sc(C(N)=S)nc2C)cc1 | – | – | > 100 µM (inactive) | > 100 µM (inactive) | > 100 µM (inactive) | > 100 µM (inactive) | 45.8 µM (inactive) | > 100 µM (inactive) | > 100 µM (inactive) | > 100 µM (inactive) | – | – | > 100 µM (inactive) | > 100 µM (inactive) | – | > 100 µM (inactive) | > 100 µM (inactive) | > 100 µM (inactive) | > 100 µM (inactive)
15 | Cc1nn(C(=O)Cc2ccccc2)c2c1C(c1ccccc1O)SC(=N)N2 (stereo unspecified) | > 100 µM (inactive) | – | > 100 µM (inactive) | > 100 µM (inactive) | > 100 µM (inactive) | > 100 µM (inactive) | > 100 µM (inactive) | > 100 µM (inactive) | > 100 µM (inactive) | > 100 µM (inactive) | > 100 µM (inactive) | > 100 µM (inactive) | – | > 100 µM (inactive) | > 100 µM (inactive) | > 100 µM (inactive) | > 100 µM (inactive) | > 100 µM (inactive) | > 100 µM (inactive)
16 | CCc1n[nH]c(=O)n1N | > 100 µM (inactive) | > 100 µM (inactive) | > 100 µM (inactive) | > 100 µM (inactive) | > 100 µM (inactive) | > 100 µM (inactive) | > 100 µM (inactive) | > 100 µM (inactive) | > 100 µM (inactive) | > 100 µM (inactive) | > 100 µM (inactive) | > 100 µM (inactive) | – | > 100 µM (inactive) | > 100 µM (inactive) | > 100 µM (inactive) | > 100 µM (inactive) | > 100 µM (inactive) | > 100 µM (inactive)

Source: ChEMBL document CHEMBL1201862, “PubChem BioAssay data set” (2004)
